From publication PMC3605511, “Tumor P-Glycoprotein Correlates with Efficacy of PF-3758309 in in vitro and in vivo Models of Colorectal Cancer” (Frontiers in Pharmacology, 2013)
Read-outs that look alike come from different tables or passages of the source.

Experiments:
HCT15 = assay: Cell proliferation assay, HCT15; type: cell-based; settings: Homo sapiens, HCT-15
Protocol: (§1) Cytotoxic/proliferation effects were determined using the sulforhodamine B (SRB) assay (Skehan et al., [1990]) or by resazurin. Briefly, cells in logarithmic growth phase were transferred to 96 well flat bottom plates with lids. One-hundred microliter cell suspensions containing 1500–5000 viable cells were plated into each well and incubated overnight prior to exposure with increasing concentrations of PF-309 for 3–5 days, dependent upon cell type. Media was removed and cells were fixed with cold 10% trichloroacetic acid for 30 min at 4°C. Cells were then washed with water and stained with 0.4% SRB (Fisher Sci., Pittsburgh, PA, USA) for 30 min at room temperature, washed again with 1% acetic acid, followed by stain solubilization with 10 mM tris at room temperature. The plate was then read on a plate reader (Biotek Synergy 2, Winooski, VT, USA) set at an absorbance wavelength of 565 nm. Cell proliferation curves were derived from the raw absorbance (OD) data.
(§2) Since PF-309 appeared to be a strong P-gp and BCRP substrates, we sought to evaluate if the transporters influenced sensitivity in vitro. We evaluated the sensitivity of CRC cell lines to PF-309 treatment in a panel of 27 lines. Cells were exposed to PF-309 at a range of concentrations for 72 h and cell content measured by SRB assay (see Pitts et al., [2013]). […]

SW837 = assay: Cell proliferation assay, SW837; type: cell-based; settings: Homo sapiens; SW837, 72 h, SRB assay
Protocol: as §1, §2

SW1463 = assay: Cell proliferation assay, SW1463; type: cell-based; settings: Homo sapiens; SW1463, PF-309 alone, 72 h; 1 uM was the maximum concentration used
Protocol: as §1, §2

LS1034 = assay: Cell proliferation assay, LS1034; type: cell-based; settings: Homo sapiens, LS-1034; LS1034, PF-309 alone, 72 h; 1 uM was the maximum concentration used
Protocol: as §1, §2

Caco-2 = assay: Cell proliferation assay, Caco-2; type: cell-based; settings: Homo sapiens
Protocol: as §1, §2

SW48 = assay: Cell proliferation assay, SW48; type: cell-based; settings: Homo sapiens; SW48, 72 h, SRB assay
Protocol: as §1, §2

SW480 = assay: Cell proliferation assay, SW480; type: cell-based; settings: Homo sapiens; SW480, 72 h, SRB assay
Protocol: as §1, §2

COLO205 = assay: Cell proliferation assay, COLO205; type: cell-based; settings: Homo sapiens, COLO 205; COLO205, 72 h, SRB assay
Protocol: as §1, §2

DLD1 PgP_KD1 = assay: Proliferation after shRNA knockdown of P-gp, DLD1 PgP_KD1; type: cell-based; settings: Homo sapiens, DLD-1; DLD1 PgP_KD1:50, P-gp shRNA knockdown
Protocol: as §1
The pGIPZ Pgp-specific shRNA expression cassettes, along with control shRNA plasmids including the original pGIPZ vector were purchased from Open Biosystems (Birmingham, AL, USA). […] Successful knockdown of specific genes and gene products was confirmed by semi-quantitative RT-PCR and immunoblotting with specific antibodies. […]

[1] = tested on: CRC, breast, and non-small cell lung cancer cell lines; assay: Proliferation by resazurin, expanded panel of 71 cell lines; type: cell-based; settings: Homo sapiens, printed over a group of bars, cell lines covered not named
Protocol: as §1, §2

CUCRC036 CRC PDTX model = assay: Patient derived tumor xenograft efficacy, CUCRC036; type: in vivo, mice; settings: 25 mg/kg orally twice daily, 22–56 days, end of study tumor volumes
Protocol: (§3) For patient tumor xenografts, surgical specimens of patients undergoing either removal of a primary or metastatic tumor at the University of Colorado Hospital are implanted subcutaneously into five mice for each patient with a 10-G trochar. After a subsequent growth and passage in mice, tumors are excised, and expanded into cohorts for treatment (n = 6–15 per group). Mice were treated with PF-309 or vehicle (0.5% methylcellulose) for 22–56 days (until control tumor volume reach ∼1500 mm^3) twice daily (BID) by oral gavage (PO). Monitoring of mice and measurements of tumors were conducted as described above. % Growth Inhibition= (average control volume−average treated volume)/average control volume×100% In addition to the cell line xenografts, we also treated 12 different patient derived tumor xenograft (PDTX) CRC models with PF-309 (Figure 6). We were unable to assess how ABCB1 gene expression correlated with efficacy in these models. The PDTX models are propagated in vivo, are not immortalized, and are not grown in in vitro culture. […] Tumor and plasma sample pairs were collected from animals at the end of study for eight tumor models (three cell line xenografts and five PDTX models) and concentrations of PF-309 were measured. […]

CUCRC026 CRC PDTX model = assay: Patient derived tumor xenograft efficacy, CUCRC026; type: in vivo, mice; settings: 25 mg/kg orally twice daily, 22–56 days, end of study tumor volumes
Protocol: as §3

IC50 (HCT15; HCT15, 72 h, SRB assay, read-out: IC50): > 1000 nM
IC50 (HCT15; HCT15, PF-309 alone, 72 h (Table 2), read-out: PF-309 IC50): 780 nM
IC50 (SW837): > 1000 nM
IC50 (SW1463): > 1000 nM
IC50 (Caco-2; Caco-2, CACO2, 72 h, SRB assay, read-out: IC50): > 1000 nM
IC50 (Caco-2; Caco-2, PF-309 alone, 72 h, read-out: PF-309 IC50): 300 nM
IC50 (SW48): 11.9 ± 4.4 nM
IC50 (SW480): 10.1 ± 2.5 nM
IC50 (COLO205): 4.2 ± 1.4 nM
IC50 (DLD1 PgP_KD1): 26 nM
IC50 [1]: > 100 nM
Structure (SMILES): Cc1nc(Nc2n[nH]c3c2CN(C(=O)N[C@H](CN(C)C)c2ccccc2)C3(C)C)c2sccc2n1 [PF-309]
IC50 (LS1034): > 1000 nM
% Growth inhibition (CUCRC036 CRC PDTX model): 35%
% Growth inhibition (CUCRC026 CRC PDTX model): 30%
